Like-named read-outs stand apart in the source and are kept apart here.
Legend:
Format in all cases: cell-based
[1] = test system: pLai RLuc reporter virus; assay: HIV MT-4 serum shift antiviral reporter assay; conditions: Human immunodeficiency virus 1, 72 h
Procedure: To quantify the amount of protein binding to human serum, compounds were serially diluted (1:3) in DMSO and acoustically transferred onto 384-well assay plates via a Labcyte ECHO robot. Each plate contained up to 8 test compounds, including negative and positive controls, (DMSO, 5 μM AZT respectively). Assay plates were prepared in duplicate, and tested in either CCM (cell culture media) or HS/CCM (human serum/cell culture media). MT-4 cells were first pre-infected with pLai RLuc reporter virus for 2 h at 37° C., then further diluted in either CCM (RPMI media, 10% FBS, 1% P/S) or HS/CCM (RPMI media, 10% FBS, 50% HS, 1% P/S), and subsequently added to each plate using a Biotek Micro Flow dispenser. After a 72-h incubation in a humidified and temperature controlled incubator (37° C.), Renilla Glo (Promega) was added to all assay plates and chemiluminescence read using an Envision plate-reader. EC50 values were defined as the compound concentration that causes a 50% decrease in luminescence signal, and were calculated using a sigmoidal dose-response model to generate curve fits. To determine the amount of protein binding, EC50 fold shifts (or EC50 shifts) were calculated by dividing EC50 (HS/CCM)/EC50 (CCM).

[2] = test system: HIV-1 (IIIB); assay: Antiviral assay in MT-4 cells; conditions: Human immunodeficiency virus 1, IIIB, MT4, 120 h, HIV-1 IIIB infected MT-4 cells, 5 days, Cell Titer Glo; read-out: MT4 EC50
Procedure: Antiviral Assay in MT-4 Cells
(§1) Compounds were tested in a high-throughput 384-well assay format for their ability to inhibit the replication of HIV-1 (IIIB) in MT-4 cells. Compounds were serially diluted (1:3) in DMSO on 384-well polypropylene plates and further diluted 200-fold into complete RPMI media (10% FBS, 1% P/S) using the Biotek Micro Flow and Labcyte ECHO acoustic dispenser. Each plate contained up to 8 test compounds, with negative (No Drug Control) and 5 μM AZT positive controls. MT-4 cells were pre-infected with 10 μL of either RPMI (mock-infected) or a fresh 1:250 dilution of HIV-1 IIIB concentrated virus stock. Infected and uninfected MT-4 cells were further diluted in complete RPMI media and added to each plate using a Micro Flow dispenser. After 5 days incubation in a humidified and temperature controlled incubator (37° C.), Cell Titer Glo (Promega) was added to the assay plates and chemiluminescence read using an Envision plate-reader. EC50 values were defined as the compound concentration that causes a 50% decrease in luminescence signal, and were calculated using a sigmoidal dose-response model to generate curve fits.

[3] = Cytotoxicity assay in MT-4 cells; conditions: human
Procedure: as §1, with “fits. Cytotoxicity Assay in MT-4 Cells Assays were performed as above except uninfected MT-4 cells were added to each well containing test compound. In addition, 10 μM puromycin was added to the last column of each assay plate to assess a base level of cytotoxicity.” for “fits.”

[4] = read-out: RLUC 50% HS (nM), HS/CCM: 50% human serum, 72 h, Renilla Glo
[5] = read-out: RLUC CCM (nM), cell culture media (RPMI, 10% FBS), 72 h, Renilla Glo
[6] = uninfected MT-4 cells, 5 days, Cell Titer Glo, read-out: CC50

With `CC(C)[C@@H]1C=C[C@H](C)N2CN1n1cc(C(=O)NCc3c(F)cc(F)cc3F)c(=O)c(O)c1C2=O` [Example C74, (1S,2R,5S)-8-hydroxy-2-isopropyl-5-methyl-7,9-dioxo-N-(2,4,6-trifluorobenzyl)-2,5,7,9-tetrahydro-1,6-methanopyrido[1,2-b][1,2,5]triazonine-10-carboxamide] the EC50 [1, 4] was 325 nM, the EC50 [1, 5] was 0.47 nM and the EC50 [2] was 0.9 nM. It also gave a CC50 at 5 days [3, 6] of 6810 nM.

With `CC(C)[C@@H]1CC[C@H](C)N2CN1n1cc(C(=O)NCc3c(F)cc(F)cc3F)c(=O)c(O)c1C2=O` [Example C75, (1S,2S,5S)-8-hydroxy-2-isopropyl-5-methyl-7,9-dioxo-N-(2,4,6-trifluorobenzyl)-2,3,4,5,7,9-hexahydro-1,6-methanopyrido[1,2-b][1,2,5]triazonine-10-carboxamide] the EC50 [1, 4] was 277 nM, the EC50 [1, 5] was 1.02 nM and the EC50 [2] was 2 nM. For the same compound, the CC50 at 5 days [3, 6] was 10900 nM.

`C[C@H]1CC[C@@H](CF)N2CN1C(=O)c1c(O)c(=O)c(C(=O)NCc3c(F)cc(F)cc3F)cn12` [Example C77, (1S,2S,5S)-2-(fluoromethyl)-8-hydroxy-5-methyl-7,9-dioxo-N-(2,4,6-trifluorobenzyl)-2,3,4,5,7,9-hexahydro-1,6-methanopyrido[1,2-b][1,2,5]triazonine-10-carboxamide] gave an EC50 [1, 4] of 296 nM, an EC50 [1, 5] of 1.14 nM and an EC50 [2] of 2 nM. For the same compound, the CC50 at 5 days [3, 6] was 15700 nM.

In the case of `C[C@H]1CC[C@@H](C(F)F)N2CN1C(=O)c1c(O)c(=O)c(C(=O)NCc3ccc(F)cc3F)cn12` [Example C81, (1S,2S,5S)—N-(2,4-difluorobenzyl)-2-(difluoromethyl)-8-hydroxy-5-methyl-7,9-dioxo-2,3,4,5,7,9-hexahydro-1,6-methanopyrido[1,2-b][1,2,5]triazonine-10-carboxamide], the EC50 [1, 4] is reported as 723 nM, the EC50 [1, 5] is reported as 0.48 nM and the EC50 [2] is reported as 1.5 nM. It also gave a CC50 at 5 days [3, 6] of 13700 nM.

Work on `COC[C@@H]1C=C[C@H](C)N2CN1n1cc(C(=O)NCc3ccc(F)cc3F)c(=O)c(O)c1C2=O` [Example C82, (1S,2S,5S)—N-(2,4-difluorobenzyl)-8-hydroxy-2-(methoxymethyl)-5-methyl-7,9-dioxo-2,5,7,9-tetrahydro-1,6-methanopyrido[1,2-b][1,2,5]triazonine-10-carboxamide] yielded an EC50 [1, 4] of 75 nM, an EC50 [1, 5] of 0.73 nM and an EC50 [2] of 1.3 nM. The CC50 at 5 days [3, 6] was 16800 nM.

In the case of `COC[C@@H]1CC[C@H](C)N2CN1n1cc(C(=O)NCc3ccc(F)cc3F)c(=O)c(O)c1C2=O` [Example C83, (1S,2S,5S)—N-(2,4-difluorobenzyl)-8-hydroxy-2-(methoxymethyl)-5-methyl-7,9-dioxo-2,3,4,5,7,9-hexahydro-1,6-methanopyrido[1,2-b][1,2,5]triazonine-10-carboxamide], the EC50 [1, 4] is reported as 261 nM, the EC50 [1, 5] is reported as 1.97 nM and the EC50 [2] is reported as 3.6 nM. For the same compound, the CC50 at 5 days [3, 6] was 30500 nM.

For `C[C@H]1CCC2(CCOC2)N2CN1C(=O)c1c(O)c(=O)c(C(=O)NCc3c(F)cc(F)cc3F)cn12` (stereo partly drawn) [Example C86, (1′S,5′S)-8′-hydroxy-5′-methyl-7′,9′-dioxo-N-(2,4,6-trifluorobenzyl)-4,4′,5,5′,7′,9′-hexahydro-2H,3′H-spiro[furan-3,2′-[1,6]methanopyrido[1,2-b][1,2,5]triazonine]-10′-carboxamide], the EC50 [1, 4] was 14.1 nM, the EC50 [1, 5] was 0.27 nM and the EC50 [2] was 0.5 nM. For the same compound, the CC50 at 5 days ([3]; CC50 (nM)) was 26000 nM.

In the case of `C[C@@H]1C=CC(C)(C)N2CN1n1cc(C(=O)NCc3ccc(F)cc3F)c(=O)c(O)c1C2=O` [Example C90, (1S,2R)—N-(2,4-difluorobenzyl)-8-hydroxy-2,5,5-trimethyl-7,9-dioxo-2,5,7,9-tetrahydro-1,6-methanopyrido[1,2-b][1,2,5]triazonine-10-carboxamide], the EC50 [1, 4] is reported as 91.9 nM, the EC50 [1, 5] is reported as 0.35 nM and the EC50 [2] is reported as 2 nM. For the same compound, the CC50 at 5 days [3, 6] was 47100 nM.

Work on `C[C@H]1CC[C@@H](CF)N2CN1n1cc(C(=O)NCc3ccc(F)cc3F)c(=O)c(O)c1C2=O` [Example C96, (1R,2S,5S)—N-(2,4-difluorobenzyl)-5-(fluoromethyl)-8-hydroxy-2-methyl-7,9-dioxo-2,3,4,5,7,9-hexahydro-1,6-methanopyrido[1,2-b][1,2,5]triazonine-10-carboxamide] yielded an EC50 [1, 4] of 958 nM, an EC50 [1, 5] of 8.27 nM and an EC50 [2] of 11.2 nM. The CC50 at 5 days [3, 6] was 5370 nM.

For `C[C@H]1C=C[C@@H](CF)N2CN1n1cc(C(=O)NCc3ccc(F)cc3F)c(=O)c(O)c1C2=O` [Example C97, (1R,2S,5S)—N-(2,4-difluorobenzyl)-5-(fluoromethyl)-8-hydroxy-2-methyl-7,9-dioxo-2,5,7,9-tetrahydro-1,6-methanopyrido[1,2-b][1,2,5]triazonine-10-carboxamide], the EC50 [1, 4] was 1730 nM, the EC50 [1, 5] was 14.7 nM and the EC50 [2] was 34.9 nM. For the same compound, the CC50 at 5 days [3, 6] was 9550 nM.

In the case of `C[C@@H]1CC[C@H](CF)N2CN1n1cc(C(=O)NCc3ccc(F)cc3F)c(=O)c(O)c1C2=O` [Example C98, (1S,2R,5R)—N-(2,4-difluorobenzyl)-5-(fluoromethyl)-8-hydroxy-2-methyl-7,9-dioxo-2,3,4,5,7,9-hexahydro-1,6-methanopyrido[1,2-b][1,2,5]triazonine-10-carboxamide], the EC50 [1, 4] is reported as 462 nM, the EC50 [1, 5] is reported as 1.03 nM and the EC50 [2] is reported as 2 nM. It also gave a CC50 at 5 days [3, 6] of 8930 nM.

For `C[C@@H]1C[C@H](F)[C@H](CF)N2CN1n1cc(C(=O)NCc3c(F)cc(F)cc3F)c(=O)c(O)c1C2=O` [Example C99, (1S,2R,4S,5S)-4-fluoro-5-(fluoromethyl)-8-hydroxy-2-methyl-7,9-dioxo-N-(2,4,6-trifluorobenzyl)-2,3,4,5,7,9-hexahydro-1,6-methanopyrido[1,2-b][1,2,5]triazonine-10-carboxamide], the EC50 [1, 4] was 349 nM, the EC50 [1, 5] was 0.52 nM and the EC50 [2] was 1.7 nM. It also gave a CC50 at 5 days [3, 6] of 9440 nM.

Work on `C[C@H]1C=CC2(CCC2)N2CN1C(=O)c1c(O)c(=O)c(C(=O)NCc3c(F)cc(F)cc3F)cn12` [Example C104, (1′S,5′S)-8′-hydroxy-5′-methyl-7′,9′-dioxo-N-(2,4,6-trifluorobenzyl)-7′,9′-dihydro-5′H-spiro[cyclobutane-1,2′-[1,6]methanopyrido[1,2-b][1,2,5]triazonine]-10′-carboxamide] yielded an EC50 [1, 4] of 140 nM, an EC50 [1, 5] of 0.44 nM and an EC50 [2] of 1.4 nM. The CC50 at 5 days ([3]; CC50 (nM)) was 19700 nM.

Compound `C[C@H]1CCC2(CCC2)N2CN1C(=O)c1c(O)c(=O)c(C(=O)NCc3c(F)cc(F)cc3F)cn12` [Example C105, (1′S,5′S)-8′-hydroxy-5′-methyl-7′,9′-dioxo-N-(2,4,6-trifluorobenzyl)-4′,5′,7′,9′-tetrahydro-3′H-spiro[cyclobutane-1,2′-[1,6]methanopyrido[1,2-b][1,2,5]triazonine]-10′-carboxamide] has an EC50 [1, 4] of 998 nM, an EC50 [1, 5] of 1.38 nM and an EC50 [2] of 3 nM. It also gave a CC50 at 5 days ([3]; CC50 (nM)) of 13600 nM.

With `CC[C@H]1C=C[C@H](C)N2CN1n1cc(C(=O)NCc3c(F)cc(F)cc3F)c(=O)c(O)c1C2=O` [Example C106, (1S,2S,5S)-2-ethyl-8-hydroxy-5-methyl-7,9-dioxo-N-(2,4,6-trifluorobenzyl)-2,5,7,9-tetrahydro-1,6-methanopyrido[1,2-b][1,2,5]triazonine-10-carboxamide] the EC50 [1, 4] was 107 nM, the EC50 [1, 5] was 0.22 nM and the EC50 [2] was 1.7 nM. The CC50 at 5 days [3, 6] was 18400 nM.

— US11613546B2, “Substituted pyridotriazine compounds and uses thereof” (Gilead Sciences, Inc., priority 2021, dated 2023)
